Reference: PubChem BioAssay AID330 (DTP/NCI, 2004)
Values joined by “and” are separate entries in the source; they are usually repeats but may differ in a detail not shown here. Equal values may be shown once. Toxic doses and inconclusive results are not listed.

System: P388 leukemia ip, CD2F1 mice, survival T/C
Assay: NCI In Vivo Anticancer Drug Screen. Data for tumor model P388 Leukemia (intraperitoneal) in CD2F1 (CDF1) mice
Settings: endpoint: median survival time, higher = longer survival
How it was run: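 Mice carrying the transplanted tumor received test compound or vehicle. Survival was recorded in each group, and the value is the treated-group measurement divided by that of the vehicle-treated control group.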

[1] = dose: 60.0 mg/kg/injection, schedule: Q01DX005 (ip), vehicle: saline
[2] = dose: 120.0 mg/kg/injection, schedule: Q01DX005 (ip), vehicle: saline
[3] = dose: 240.0 mg/kg/injection, schedule: Q01DX005 (ip), vehicle: saline
[4] = dose: 50.0 mg/kg/injection, schedule: Q01DX009 (ip), vehicle: saline
[5] = dose: 60.0 mg/kg/injection, schedule: Q01DX005 (ip), vehicle: saline with Tween-80
[6] = dose: 120.0 mg/kg/injection, schedule: Q01DX005 (ip), vehicle: saline with Tween-80
[7] = dose: 240.0 mg/kg/injection, schedule: Q01DX005 (ip), vehicle: saline with Tween-80
[8] = dose: 100.0 mg/kg/injection, schedule: Q04DX003 (ip), vehicle: saline with Tween-80
[9] = dose: 200.0 mg/kg/injection, schedule: Q04DX003 (ip), vehicle: saline with Tween-80
[10] = dose: 400.0 mg/kg/injection, schedule: Q04DX003 (ip), vehicle: saline with Tween-80
[11] = dose: 100.0 mg/kg/injection, schedule: Q01DX009 (ip), vehicle: saline with Tween-80
[12] = dose: 200.0 mg/kg/injection, schedule: Q01DX009 (ip), vehicle: saline with Tween-80

S=C(Nc1ccc(I)cc1)SCc1ccc(Cl)cc1
T/C (dose: 50.0 mg/kg/injection, schedule: Q01DX009 (ip), vehicle: suspension in saline): 104 % of control | T/C (dose: 100.0 mg/kg/injection, schedule: Q01DX009 (ip), vehicle: suspension in saline): 111 % of control | T/C (dose: 200.0 mg/kg/injection, schedule: Q01DX009 (ip), vehicle: suspension in saline): 119 % of control

O=c1c(N=Nc2nc3ccccc3s2)c(O)n(-c2ccccc2)c(=S)n1-c1ccccc1
T/C [1]: 109 % of control | T/C [2]: 100 % of control | T/C [3]: 106 % of control

CC(C)(CCl)C(=O)O
T/C [4]: 95 % of control

c1ccc2c(c1)NC(NC1Nc3ccccc3N1)N2
T/C (dose: 30.0 mg/kg/injection, schedule: Q01DX005 (ip), vehicle: saline with Tween-80): 91 % of control | T/C [5]: 86 % of control and 97 % of control

C[n+]1c2ccccc2cc2[nH]c3ccccc3c21
T/C (dose: 6.25 mg/kg/injection, schedule: Q01DX005 (ip), vehicle: Klucel + Tween-80): 105 % of control

CCN(CC)Cc1c(C)[nH]c2ccc3c(c2c1=O)Oc1ccccc1O3
T/C (dose: 100.0 mg/kg/injection, schedule: Q04DX002 (ip), vehicle: Klucel (hydroxypropylcellulose) (HPC)): 100 % of control | T/C (dose: 200.0 mg/kg/injection, schedule: Q04DX002 (ip), vehicle: Klucel (hydroxypropylcellulose) (HPC)): 100 % of control | T/C (dose: 400.0 mg/kg/injection, schedule: Q04DX002 (ip), vehicle: Klucel (hydroxypropylcellulose) (HPC)): 100 % of control

COC(=O)C(=O)C1CCc2c(C(=O)OC)nc3nnc(N)n3c21 (stereo not drawn)
T/C [5]: 94 % of control | T/C [6]: 99 % of control | T/C [7]: 87 % of control

c1ccc([P+]23OCCN2CCO3)cc1
T/C [8]: 104 % of control | T/C [9]: 98 % of control | T/C [10]: 102 % of control

O=C1C=C(Cl)C(O)C1(Cl)Cl (stereo not drawn)
T/C (dose: 6.25 mg/kg/injection, schedule: Q01DX009 (ip), vehicle: saline): 94 % of control | T/C (dose: 12.5 mg/kg/injection, schedule: Q01DX009 (ip), vehicle: saline): 92 % of control

O=C1C(N2CCOCC2)=C(N2CC2)C(=O)C(N2CCOCC2)=C1N1CC1
T/C (dose: 0.25 mg/kg/injection, schedule: Q01DX009 (ip), vehicle: saline): 119 % of control | T/C (dose: 0.5 mg/kg/injection, schedule: Q01DX009 (ip), vehicle: saline): 152 % of control | T/C (dose: 0.66 mg/kg/injection, schedule: Q01DX009 (ip), vehicle: saline): 153 % of control | T/C (dose: 1.0 mg/kg/injection, schedule: Q01DX009 (ip), vehicle: saline): 152 % of control and 161 % of control | T/C (dose: 1.5 mg/kg/injection, schedule: Q01DX009 (ip), vehicle: saline): 170 % of control

OC(C1=NNC(C(O)c2ccccc2)=NN1)c1ccccc1 (stereo not drawn)
T/C [5]: 92 % of control | T/C [6]: 100 % of control | T/C [7]: 102 % of control

CC(C)(C)NCC(O)CSc1nc(-c2ccc(C(N)=O)s2)cs1 (stereo not drawn)
T/C (dose: 50.0 mg/kg/injection, schedule: Q01DX009 (ip), vehicle: saline with Tween-80): 100 % of control | T/C [11]: 109 % of control | T/C [12]: 109 % of control

O=c1c[n+](-c2ccccc2)[nH]o1
T/C (dose: 100.0 mg/kg/injection, schedule: Q04DX003 (ip), vehicle: Klucel (hydroxypropylcellulose) (HPC)): 109 % of control | T/C (dose: 200.0 mg/kg/injection, schedule: Q04DX003 (ip), vehicle: Klucel (hydroxypropylcellulose) (HPC)): 100 % of control | T/C (dose: 400.0 mg/kg/injection, schedule: Q04DX003 (ip), vehicle: Klucel (hydroxypropylcellulose) (HPC)): 104 % of control

CC(=O)[C@H]1CC[C@H]2[C@@H]3CCC4=CC(=O)[C@H](C)C[C@]4(C)[C@H]3C(=O)C[C@]12C
T/C [8]: 100 % of control | T/C [9]: 95 % of control | T/C [10]: 95 % of control

CCOC(=O)C(=O)Nc1c(C(C)=O)cc(C)c(C)c1C#N
T/C (dose: 50.0 mg/kg/injection, schedule: Q01DX009 (ip), vehicle: saline + alcohol): 92 % of control | T/C (dose: 100.0 mg/kg/injection, schedule: Q01DX009 (ip), vehicle: saline + alcohol): 97 % of control | T/C (dose: 200.0 mg/kg/injection, schedule: Q01DX009 (ip), vehicle: saline + alcohol): 96 % of control

O=[N+]([O-])c1cc(CN(CCO)CCO)c(O)c2ncccc12
T/C [5]: 104 % of control | T/C [6]: 109 % of control

CCCCCCCCCCCCCCCCOc1ccc(S(=O)(=O)N/N=c2/sc3ccc(S(=O)(=O)O)cc3n2C)cc1C(=O)O
T/C (dose: 25.0 mg/kg/injection, schedule: Q01DX009 (ip), vehicle: saline): 99 % of control | T/C [4]: 100 % of control | T/C [11]: 102 % of control | T/C (dose: 100.0 mg/kg/injection, schedule: Q01DX009 (ip), vehicle: saline): 86 % of control

CCCCn1c(Cl)c(/C=N\Nc2ccc([N+](=O)[O-])cc2[N+](=O)[O-])c2ccccc21
T/C [8]: 94 % of control | T/C [9]: 90 % of control | T/C [10]: 88 % of control

C=CCNC(=O)c1cc(N2CC2)c([N+](=O)[O-])cc1[N+](=O)[O-]
T/C (dose: 12.5 mg/kg/injection, schedule: Q01DX009 (ip), vehicle: Klucel (hydroxypropylcellulose) (HPC)): 91 % of control and 97 % of control

CCN(CC)C(C)(C)C(=O)/C=C/c1ccc(Cl)cc1
T/C [1]: 115 % of control | T/C [2]: 101 % of control

CCCCCCCCCCC(=O)CCCC
T/C [11]: 109 % of control | T/C [8]: 100 % of control | T/C [12]: 104 % of control | T/C [9]: 95 % of control | T/C (dose: 400.0 mg/kg/injection, schedule: Q01DX009 (ip), vehicle: saline with Tween-80): 109 % of control | T/C [10]: 95 % of control

Cc1cc(N2CCOCC2)ccc1N=Nc1nc2ccccc2s1
T/C (dose: 100.0 mg/kg/injection, schedule: Q01DX001 (ip), vehicle: saline): 89 % of control | T/C (dose: 200.0 mg/kg/injection, schedule: Q01DX001 (ip), vehicle: saline): 88 % of control

CCOC(=O)Cc1cc2c(cc1C)CNC(=O)C2
T/C (dose: 6.25 mg/kg/injection, schedule: Q01DX009 (ip), vehicle: distilled water + Tween-80): 94 % of control | T/C (dose: 12.5 mg/kg/injection, schedule: Q01DX009 (ip), vehicle: distilled water + Tween-80): 100 % of control | T/C (dose: 25.0 mg/kg/injection, schedule: Q01DX009 (ip), vehicle: distilled water + Tween-80): 100 % of control | T/C (dose: 50.0 mg/kg/injection, schedule: Q01DX009 (ip), vehicle: distilled water + Tween-80): 94 % of control | T/C (dose: 100.0 mg/kg/injection, schedule: Q01DX009 (ip), vehicle: distilled water + Tween-80): 94 % of control | T/C (dose: 200.0 mg/kg/injection, schedule: Q01DX009 (ip), vehicle: distilled water + Tween-80): 90 % of control | T/C (dose: 400.0 mg/kg/injection, schedule: Q01DX009 (ip), vehicle: distilled water + Tween-80): 102 % of control

COc1ccc(/C=N/NC(=O)C(O)c2ccccc2)cc1 (stereo not drawn)
T/C [5]: 99 % of control | T/C [6]: 90 % of control | T/C [7]: 91 % of control

COP(=O)(OC)C1(Nc2ccccc2)C2CC3CC(C2)CC1C3 (stereo not drawn)
T/C (dose: 100.0 mg/kg/injection, schedule: Q01DX001 (ip), vehicle: saline with Tween-80): 105 % of control | T/C (dose: 200.0 mg/kg/injection, schedule: Q01DX001 (ip), vehicle: saline with Tween-80): 110 % of control | T/C (dose: 400.0 mg/kg/injection, schedule: Q01DX001 (ip), vehicle: saline with Tween-80): 102 % of control

COC1=C(C)C(=O)C2=C(C1=O)C1C3CC4=C(C(=O)C(OC)=C(C)C4=O)C(CNC(=O)C(C)O)N3C(C#N)C(C2)N1C (stereo not drawn)
T/C (dose: 2.5 mg/kg/injection, schedule: Q01DX005 (ip), vehicle: Klucel (hydroxypropylcellulose) (HPC)): 155 % of control and 161 % of control

Cc1cccc(CC(O)c2ccc(C=O)cc2)n1 (stereo not drawn)
T/C [5]: 105 % of control | T/C [6]: 98 % of control | T/C [7]: 98 % of control

CCc1onc(-c2noc(CC)c2C)c1C
T/C [1]: 98 % of control | T/C [2]: 104 % of control | T/C [3]: 107 % of control

COc1ccc(C(O)c2ccc(OC)c(OC)c2)cc1OC
T/C (dose: 25.0 mg/kg/injection, schedule: Q01DX009 (ip), vehicle: other): 100 % of control | T/C (dose: 50.0 mg/kg/injection, schedule: Q01DX009 (ip), vehicle: other): 100 % of control | T/C (dose: 100.0 mg/kg/injection, schedule: Q01DX009 (ip), vehicle: other): 96 % of control | T/C (dose: 200.0 mg/kg/injection, schedule: Q01DX009 (ip), vehicle: other): 89 % of control | T/C (dose: 400.0 mg/kg/injection, schedule: Q01DX009 (ip), vehicle: other): 89 % of control

O=C(O)C1CC2c3ccccc3C1([N+](=O)[O-])c1ccccc12 (stereo not drawn)
T/C [5]: 101 % of control | T/C [6]: 104 % of control | T/C [7]: 109 % of control

Cc1cc(Cl)nc(Cl)c1C#N
T/C (dose: 18.75 mg/kg/injection, schedule: Q04DX003 (ip), vehicle: saline): 98 % of control | T/C (dose: 37.5 mg/kg/injection, schedule: Q04DX003 (ip), vehicle: saline): 103 % of control | T/C (dose: 75.0 mg/kg/injection, schedule: Q04DX003 (ip), vehicle: saline): 103 % of control | T/C (dose: 150.0 mg/kg/injection, schedule: Q04DX003 (ip), vehicle: saline): 99 % of control
